In patent US10239851B2 (priority 2014, dated 2019):
Like-named read-outs stand apart in the source and are kept apart here. Marks after values point to notes of the source that are not given here.

How the values were obtained:
mice [1] = settings: intravenous, equimolar amounts to propofol
Kunming mice = experiment: Latent period and persistent period of anesthesia in mice; format: in vivo; settings: intravenous injection
SD rats = experiment: ED50 and LD50 test concerning anesthesia (sequential method) in rats; format: in vivo; settings: for Rat ED50: anesthesia (loss of righting reflex); for Rat ED50 / Rat LD50: caudal vein injection
Experimental: (§1) Test samples for the experiment on rabbit were formulated to have corresponding concentrations based on the results from a preliminary test. […] Rats and mice were administered with samples having a fixed concentration of drugs, while the volume of administration altered according to actual situation. The volume of administration to rabbits was 1 mL/kg body weight.
(§2) ED50 and LD50 values concerning anesthesia were determined using a sequential method. Healthy KM mice (male), SD rats (male) and New Zealand White rabbits were used for test. […] For rabbits, the compounds were administered by injection at a constant rate via ear vein for 30 seconds. Before the test, a preliminary test was conducted to determine an approximate dosage (volume of administration) that leads to anesthetization (or death) of animals, which was set as the middle dosage in the formal test. […] The disappearance of righting reflex or death was used as indicators of pharmacological efficacy or toxicity, respectively. The formal test began with the administration of the middle dosage. If animals were anesthetized, a lower dosage was administered; if animals were not anesthetized, a higher dosage was administered, until the cycle was repeated for 3-4 times. LD50 and ED50 were calculated by a sequential method aot425 software. TI was calculated according to the following equation: TI=LD50/ED50.

[2] = rabbit plasma, 37° C.; for Sampling time/dissociation percent (%) 15 s / Sampling time/dissociation percent (%) 30 s: formula F derivatives
Experimental: (§3) 0.1 ml samples were taken from each of the solutions, added respectively to 1 ml of blood plasma of rabbit (taken from New Zealand white rabbits, treated according to conventional methods, anticoagulated with heparin) or 1 ml of blood plasma of rat (taken from live SD rats, treated according to conventional methods, anticoagulated with heparin), homogeneously mixed, and placed in a thermostatic water bath at 37° C. for incubation with time being recorded. Samples were taken at different time points after the experiment began, and 2 ml of acetonitrile was immediately added. The samples were shaken and centrifuged for 5 min (15,000 rpm), and the supernatant was then taken for HPLC analysis.

KM mice = experiment: ED50 and LD50 test concerning anesthesia (sequential method) in mice; format: in vivo; settings: for Mouse ED50: anesthesia (loss of righting reflex); for Mouse ED50 / Mouse LD50: caudal vein injection
Experimental: as §1, §2

[3] = tested on: New Zealand White rabbits; experiment: ED50 and LD50 test concerning anesthesia (sequential method) in rabbits; format: in vivo; settings: for TI index: TI=LD50/ED50; for LD50 / ED50: injection via ear vein; for LD50: death; for ED50: disappearance of righting reflex
Experimental: as §1, §2

[4] = rat plasma, 37° C.; for Sampling time/dissociation percent (%) 5 s / Sampling time/dissociation percent (%) 15 s / Sampling time/dissociation percent (%) 30 s: formula F derivatives
Experimental: as §3

[5] = In vitro dissociation of the water soluble taxane derivatives in blood plasma of rabbit; format: in vitro ADME, New Zealand white rabbits; settings: 37° C.
Experimental: The obtained water soluble taxane derivatives were formulated as 0.2 mg/ml aqueous solutions. […] After 5 min, 20 min and 60 min of incubation, 0.2 ml of solutions were respectively taken from each of the samples, and added to acetonitrile (0.4 ml) cooled to −20° C. for precipitation of protein.

[6] = In vitro dissociation of the water soluble taxane derivatives in blood plasma of rat; format: in vitro ADME, SD rats; settings: 37° C.
Experimental: The obtained water soluble taxane derivatives were formulated as 0.2 mg/ml aqueous solutions. […] After 2 min, 5 min and 10 min of incubation, 0.2 ml of solutions were respectively taken from each of the samples, and added to acetonitrile (0.4 ml) cooled to −20° C. for precipitation of protein.

[7] = rats, 5 mg/kg intravenous, 5 min after administration
Experimental: After 5 min of administration, 0.3 ml of venous blood was taken from the retrobulbar venous plexus of the rats, placed in heparinized tubes, and centrifuged at 11,000 rpm for 5 min. Blood plasma was separated, and the concentrations of the compounds in the blood plasma were determined by liquid chromatography-mass spectrometry.

mice [8] = settings: cited from earlier work
[9] = dosage 2 * ED50, 3 mg/ml solution
[10] = dosage 2 * ED50, 6 mg/ml solution
[11] = 3 mg/ml solution, confirmation test
[12] = 6 mg/ml solution, confirmation test
[13] = formula G derivatives, sampling time 15 s
[14] = fospropofol 136 mg/kg (2 * ED50)

Row | Structure (SMILES) | Latent Period (Kunming mice; [9]) [s] | Persistent period (Kunming mice; [9]) [s] | Latent Period (Kunming mice; [10]) [s] | Persistent period (Kunming mice; [10]) [s] | TI Rat (SD rats; 3 mg/ml solution) | TI Rat (SD rats; 6 mg/ml solution) | Rat ED50 (SD rats; 6 mg/ml solution) [mg/kg] | TI Mouse (KM mice; [11]) | TI Mouse (KM mice; 3 mg/ml solution, first test) | TI Mouse (KM mice; [12]) | TI Mouse (KM mice; 6 mg/ml solution, first test) | Mouse ED50 (KM mice; [11]) [mg/kg] | Mouse ED50 (KM mice; 3 mg/ml solution, first test) [mg/kg] | Mouse ED50 (KM mice; [12]) [mg/kg] | Mouse ED50 (KM mice; 6 mg/ml solution, first test) [mg/kg] | Mouse LD50 (KM mice; [11]) [mg/kg] | Mouse LD50 (KM mice; 3 mg/ml solution, first test) [mg/kg] | Mouse LD50 (KM mice; 6 mg/ml solution, first test) [mg/kg] | LD50 [3] | ED50 [3] | further results
1 | CC(C)c1cccc(C(C)C)c1OC(=O)[C@H](F)CCN(C)C.Cl [J′] |  |  |  |  |  |  |  |  |  |  |  |  |  |  |  |  |  |  |  |  | latent period for anesthesia compared to propofol (mice [1]): almost equal to those of propofol; neurotoxic response after waking up (mice [1]): no neurotoxic response was observed; persistent period for anesthesia compared to propofol (mice [1]): almost equal to those of propofol
2 | CC(C)c1cccc(C(C)C)c1OC(=O)CCCN(C)C.Cl [J′-1, reference compound] |  |  |  |  |  |  |  |  |  |  |  |  |  |  |  |  |  |  |  |  | latent period for anesthesia compared to propofol (mice [1]): much longer than those of propofol; neurotoxic response after waking up (mice [1]): transient hemiplegia after waking up; persistent period for anesthesia compared to propofol (mice [1]): much longer than those of propofol
3 | CC(C)c1cccc(C(C)C)c1OC(=O)C(F)CCC(=O)[O-].[Na+] (racemic) [Compound F1, propofol 4-carboxyl-2(R,S)-fluorovalerate sodium salt] | 18.6 ± 0.7 | 349.7 ± 229.4 | 15.2 ± 1.4 | 523 ± 248 | 3.0 | 3.7 | 11.3 | 2.8 | 3* | 3.3 | 2.7* | 18.6 | 20.8 | 16.7 | 18.2 | 52.3 | 63.4 | 49.7 | 34.4 (32.1-36.5) mg/kg | 12.2 (10.6-14.6) mg/kg | Rat ED50 (SD rats; 3 mg/ml solution): 14.6 mg/kg; Rat LD50 (SD rats; 3 mg/ml solution): 44.1 mg/kg; Rat LD50 (SD rats; 6 mg/ml solution): 42.3 mg/kg; Sampling time/dissociation percent (%) 15 s ([2]; sampling time 15 s): 47.5%; Sampling time/dissociation percent (%) 30 s ([2]; sampling time 30 s): 75.5%; Mouse LD50 (KM mice; [12]): 55.4 mg/kg; TI index [3]: 2.8; Sampling time/dissociation percent (%) 5 s ([4]; sampling time 5 s): 64.1%; Sampling time/dissociation percent (%) 15 s ([4]; sampling time 15 s): 70.2%; Sampling time/dissociation percent (%) 30 s [4]: 86.7%
4 | CC(C)c1cccc(C(C)C)c1OC(=O)[C@@H](F)CCOP(=O)([O-])[O-].[Na+].[Na+] [Compound G2, {1-[4-(2,6-diisopropylphenoxy)-4-oxo-3-(S)-3-fluoro-1-butyl]} phosphate monoester disodium salt] | 16.3 ± 0.8 | 383.6 ± 242.1 | 15.7 ± 2.3 | 571 ± 173 | 3.3 | 2.8 | 21.1 | 3.0 | 2.8* | 2.3 | 1.9* | 19.8 | 23.7 | 22.8 | 25.6 | 60.4 | 65.7 | 48.7 | 38.7 (35.1-41.3) mg/kg | 14.7 (12.6-19.1) mg/kg | Sampling time/dissociation percent (%) 15 S [2, 13]: 37.2%; Sampling time/dissociation percent (%) 30 S ([2]; formula G derivatives, sampling time 30 s): 54.3%; Sampling time/dissociation percent (%) 5 S ([4]; formula G derivatives, sampling time 5 s): 48.5%; Sampling time/dissociation percent (%) 15 S [4, 13]: 69.7%
5 | CC(=O)O[C@H]1C(=O)[C@@]2(C)[C@H]([C@H](OC(=O)c3ccccc3)[C@]3(O)C[C@H](OC(=O)[C@H](OC(=O)C(F)CCN(C)C)[C@@H](NC(=O)c4ccccc4)c4ccccc4)C(C)=C1C3(C)C)[C@]1(OC(C)=O)CO[C@@H]1C[C@@H]2O.Cl (stereo partly drawn) [Compound 03, 2′-O-[4-(N,N-dimethyl)amino-2(R,S)-fluorobutyryl]paclitaxel Hydrochloride] |  |  |  |  |  |  |  |  |  |  |  |  |  |  |  |  |  |  |  |  | dissociation percent ([5]; 5 min): 75.7%; dissociation percent ([5]; 20 min): 93.5%; dissociation percent ([5]; 60 min): 100%; dissociation percent ([6]; 2 min): 61.8%; dissociation percent ([6]; 5 min): 93.1%; dissociation percent ([6]; 10 min): 100%; detection of the administered derivative in the blood plasma [7]: cannot be detected
6 | CC(C)c1cccc(C(C)C)c1OC(=O)[C@H](F)CCN(C)C.Cl [Compound E2, Propofol 4-(N,N-dimethyl)amino-2(R)-fluorobutyrate Hydrochloride] | 14.6 ± 0.9 | 383.6 ± 242.1 | 14.2 ± 1.9 | 543 ± 231 | 3.8 | 3.1 | 10.1 | 3^ | 4* | 3.7 | 3.6* | 15.4 | 17.9 | 13.0 | 15.2 | 46.9 | 71.8 | 55.1 | 28 (23.0-34.2) mg/kg | 8 (5.7-10.5) mg/kg | Rat ED50 (SD rats; 3 mg/ml solution): 9.8 mg/kg; Rat LD50 (SD rats; 3 mg/ml solution): 37.5 mg/kg; Rat LD50 (SD rats; 6 mg/ml solution): 30.7 mg/kg; dissociation percent ([2]; 15 s): 97.7%; dissociation percent ([2]; 30 s): 100%; Mouse LD50 (KM mice; [12]): 48.0 mg/kg; TI index [3]: 3.5; dissociation percent ([4]; 5 s): 100%
7 | CC(C)c1cccc(C(C)C)c1OC(=O)C(F)CC(=O)[O-].[Na+] [Compound F7, propofol 3-carboxyl-2(R)-fluorobutyrate sodium salt] | 20.2 ± 0.6 | 335.5 ± 218.1 | 16.2 ± 2.2 | 517 ± 231 | 3.0 | 3.5 | 12.5 | 2.6 | 2.8* | 3.1 | 2.4* | 19.2 | 21.4 | 18.1 | 20.7 | 51.6 | 59.8 | 51.2 | 36.7 (33.8-39.4) mg/kg | 13.9 (11.1-16.8) mg/kg | Rat ED50 (SD rats; 3 mg/ml solution): 15.7 mg/kg; Rat LD50 (SD rats; 3 mg/ml solution): 47.4 mg/kg; Rat LD50 (SD rats; 6 mg/ml solution): 44.4 mg/kg; Sampling time/dissociation percent (%) 15 s ([2]; sampling time 15 s): 46.3%; Sampling time/dissociation percent (%) 30 s ([2]; sampling time 30 s): 72.8%; Mouse LD50 (KM mice; [12]): 56.6 mg/kg; TI index [3]: 2.6; Sampling time/dissociation percent (%) 5 s ([4]; sampling time 5 s): 58.8%; Sampling time/dissociation percent (%) 15 s ([4]; sampling time 15 s): 71.3%; Sampling time/dissociation percent (%) 30 s [4]: 85.4%
8 | CC(C)c1cccc(C(C)C)c1OCOP(=O)(O)O [Fospropofol] |  |  |  |  |  |  |  |  |  |  |  |  |  |  |  |  |  |  |  |  | Latent Period (mice [8]; dosage 1.25 * ED50 (propofol 15 mg/kg, fospropofol 85 mg/kg)): 105 s; Latent Period (mice [8]; [14]): 81 s; Persistent period (mice [8]; [14]): 804 s
9 | CC(=O)O[C@H]1C(=O)[C@@]2(C)[C@H]([C@H](OC(=O)c3ccccc3)[C@]3(O)C[C@H](OC(=O)[C@H](OC(=O)[C@@H](F)CCN(C)C)[C@@H](NC(=O)c4ccccc4)c4ccccc4)C(C)=C1C3(C)C)[C@]1(OC(C)=O)CO[C@@H]1C[C@@H]2O.Cl [Compound 02, 2′-O-[4-(N,N-dimethyl)amino-2(S)-fluorobutyryl]paclitaxel hydrochloride] |  |  |  |  |  |  |  |  |  |  |  |  |  |  |  |  |  |  |  |  | dissociation percent ([5]; 5 min): 68.2%; dissociation percent ([5]; 20 min): 97.5%; dissociation percent ([5]; 60 min): 100%; dissociation percent ([6]; 2 min): 59.8%; dissociation percent ([6]; 5 min): 95.6%; dissociation percent ([6]; 10 min): 100%; detection of the administered derivative in the blood plasma [7]: cannot be detected
10 | CC(=O)O[C@H]1C(=O)[C@@]2(C)[C@H]([C@H](OC(=O)c3ccccc3)[C@]3(O)C[C@H](OC(=O)[C@H](OC(=O)[C@H](F)CCN(C)C)[C@@H](NC(=O)c4ccccc4)c4ccccc4)C(C)=C1C3(C)C)[C@]1(OC(C)=O)CO[C@@H]1C[C@@H]2O.Cl [Compound 01, 2′-O-[4-(N,N-dimethyl)amino-2(R)-fluorobutyryl]paclitaxel Hydrochloride] |  |  |  |  |  |  |  |  |  |  |  |  |  |  |  |  |  |  |  |  | dissociation percent ([5]; 5 min): 76.5%; dissociation percent ([5]; 20 min): 98.3%; dissociation percent ([5]; 60 min): 100%; dissociation percent ([6]; 2 min): 63.5%; dissociation percent ([6]; 5 min): 96.8%; dissociation percent ([6]; 10 min): 100%; detection of the administered derivative in the blood plasma [7]: cannot be detected; mean concentration of paclitaxel in the blood plasma [7]: 1789 ng/mL
